From patent publication US20240016153A1, “WHEAT SEED PRODUCTION” (PIONEER HI-BRED INTERNATIONAL, INC., priority 2022, published 2024)

What was measured:
[1] = system: Hard Red Winter (HRW) wheat varieties or wheat inbred lines; test: field and greenhouse experiments: effect of GA3 on plant height, heading, flowering and yield in GA sensitive and insensitive wheat genotypes; format: in vivo
Method: A series of field and greenhouse experiments were conducted to understand the effect of GA3 on plant height, pollen dispersal and seed set in GA sensitive and insensitive wheat genotypes. Eight proprietary Hard Red Winter (HRW) wheat varieties or wheat inbred lines were used in this project at two locations. The plants were genotyped for the Rht1, Rht2, and Rht24 mutant alleles to determine which plants were GA3 sensitive or insensitive genotypes.
Commercially available GA3 was applied using a broadcast application to the wheat plants at various vegetative growth stages described by the Feekes Scale. GA3 was applied at different rates of active ingredient (ai)/acre to elucidate the growth response. Experimental treatments were: Untreated, 1 oz ai/acre applied at Feekes stage 6, 1 oz ai/acre applied sequentially at Feekes stage 6 and Feekes stage 8 (2 oz ai/acre total), and 1 oz ai/acre applied sequentially at Feekes stage 6, Feekes stage 8, and Feekes stage 10 (3 oz ai/acre total)

winter wheat genotypes = test: production studies: sodium chlorate desiccant sprayed to delay male flowering; format: in vivo
Method: A series of production studies were conducted to understand how to delay male flowering in wheat seed production. Several winter wheat genotypes were planted in a split plot design and sprayed with a commercially available sodium chlorate desiccant at the highest labeled rate at Feekes stages 7 and 9. In most crops, desiccants are typically used to artificially accelerate the drying down of plant tissues. Here, the strategy was to slow growth rates in the male wheat plants to delay heading and subsequent flowering. […] The desiccant caused a slight 0 to 2 inch (0 to 5 cm) reduction in plant height.

| SMILES | change in heading and flowering ([1]; GA insensitive genotypes) | effect on wheat plant height ([1]; GA sensitive genotypes vs same genotype not treated) | wheat yield vs untreated plants ([1]; GA sensitive genotypes, same GA3 treatment) | decrease of yield ([1]; GA sensitive male genotypes) [%] | differences in plant height with GA3 treatments ([1]; plants with Rht1+Rht24 or Rht2+Rht24 mutant alleles (GA3 insensitive genotype combinations)) | inbred male yield (winter wheat genotypes; sprayed at Feekes stage 7 or 9 (both stages), FIG. 4) | inbred male yield, comparison of stages (winter wheat genotypes; sprayed at Feekes stage 9, FIG. 4) |
| --- | --- | --- | --- | --- | --- | --- | --- |
| C=C1C[C@]23C[C@@]1(O)CC[C@H]2[C@@]12C=C[C@H](O)[C@@](C)(C(=O)O1)[C@H]2[C@@H]3C(=O)O [GA3, gibberellin A3] | did not change | positive effect | lower wheat yield | 11 | did not show differences in plant height |  |  |
| [Na+].[O-][Cl+2]([O-])[O-] [sodium chlorate] |  |  |  |  |  | reduced | greatest reduction |
